According to patent US20260374766A1, “METHODS FOR TREATING CANCER” (Antares Therapeutics, Inc., priority 2022, published 2026):
Where two headings read alike, the source gives them in different places.

Experiments:
H1299 p53 Y220C = test: Cell Proliferation Assay (CellTiter-Glo, CTG), H1299 p53 Y220C (NClH1299-inducible p53 Y220C); assay type: cell-based; settings: Homo sapiens, NCI-H1299, 120 h, NClH1299-inducible p53 Y220C cells, 5 days, CellTiter-Glo
Procedure, shortened: (§1)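 Cells seeded at 250-500 per well and exposed to compound for 5 days. Viability read by CellTiter-Glo luminescence after 10 min at room temperature; IC50 calculated. H1299 lines carry Tet-One inducible p53 mutant constructs introduced by lentiviral transduction.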

[1] = molecular target: T1, p53 Y220C mutant protein (amino acid residues 94-293) (Homo sapiens, UniProt P04637, Y220C); test: Surface Plasmon Resonance (SPR) assay, Kd_kinetic; assay type: binding; settings: read-out: SPR P53 Y220C KD kinetic
T1 construct: p53 Y220C mutant protein (amino acid residues 94-293)
Procedure, shortened: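 Binding measured by SPR on a Biacore 8K in running buffer of 50 mM Tris pH 7.5, 100 mM NaCl, 1 mM DTT, 0.01% Brij35, 0.05% Tween-20, 1% DMSO.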

H1299 p53 R273H = test: Cell Proliferation Assay (CellTiter-Glo, CTG), H1299 p53 R273H (NClH1299-inducible p53 R273H); assay type: cell-based; settings: Homo sapiens, NCI-H1299, 120 h, NClH1299-inducible p53 R273H cells, 5 days, CellTiter-Glo
Procedure, shortened: as §1

NUGC3 p53 Y220C = test: Cell Proliferation Assay (CellTiter-Glo, CTG), NUGC3 p53 Y220C; assay type: cell-based; settings: Homo sapiens, NUGC-3, 120 h, NUGC3 cells, 5 days, CellTiter-Glo
Procedure, shortened: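 NClH1299 lines stably transduced with Tet-inducible p53 Y220C or R273H, plus NUGC3, were treated with compound for 5 days at 250-500 cells/well. IC50 derived from CellTiter-Glo luminescent signal after 10 min room-temperature incubation.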

p53 Y220C = p53 Y220C (Homo sapiens, UniProt P04637, Y220C); test: Luciferase Reporter Assay (Luc), p53 response element, NClH1299 cells with inducible p53 Y220C; assay type: cell-based; settings: luciferase reporter, NClH1299 inducible p53 Y220C, 6 hour; for AC50: read-out: Luc P53 Y220C AC50
Procedure, shortened: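 Luminescence readout (One-Glo, 5 min shaking at RT, read at once) after 6 h compound exposure; cells pre-induced 24 h with 0.5 ug/mL doxycycline, 5,000/well.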

T1 sequence (P04637 94-293, stated change not applied): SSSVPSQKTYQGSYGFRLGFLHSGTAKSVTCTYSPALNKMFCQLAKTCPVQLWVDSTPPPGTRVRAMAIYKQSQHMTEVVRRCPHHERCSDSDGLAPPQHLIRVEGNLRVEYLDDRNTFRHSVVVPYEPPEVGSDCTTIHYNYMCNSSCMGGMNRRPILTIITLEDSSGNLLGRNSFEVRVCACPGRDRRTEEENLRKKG

| IC50 (H1299 p53 Y220C) | Kd ([1]; SPR, p53 Y220C) | IC50 (H1299 p53 R273H) | AC50 (p53 Y220C) | Emax (p53 Y220C) | Kd [1] | Structure (SMILES) | IC50 (NUGC3 p53 Y220C) |
| --- | --- | --- | --- | --- | --- | --- | --- |
| < 750 nM | < 10 nM | < 5000 nM | < 750 nM | 70 to 80% | – | CNC(=O)c1cnc(OC)c(NCC#Cc2nc3c(N[C@@H]4CCN(C)C[C@@H]4F)cccn3c2SC(F)F)c1 [Example 278] | < 750 nM |
| < 750 nM | < 10 nM | ≥ 10000 nM | < 750 nM | > 90% | – | COc1cc(C(N)=O)ccc1NCC#Cc1cc2c(N[C@@H]3CCN(C)C[C@@H]3F)nccn2c1SC(F)(F)F [Example 299] | < 750 nM |
| 750 to 1500 nM | < 10 nM | ≥ 10000 nM | 750 to 1500 nM | > 90% | – | CNC(=O)c1ccc(NCC#Cc2cc3c(N[C@@H]4CCN(C)C[C@@H]4F)nccn3c2SC(F)(F)F)c(C#N)c1 [Example 301] | 750 to 1500 nM |
| < 750 nM | < 10 nM | ≥ 10000 nM | < 750 nM | > 90% | – | CNC(=O)c1ccc(NCC#Cc2cc3c(N[C@@H]4CCN(C)C[C@@H]4F)nccn3c2SC(F)(F)F)c(F)c1 [Example 302] | < 750 nM |
| < 750 nM | < 10 nM | ≥ 10000 nM | < 750 nM | > 90% | – | CNC(=O)c1ccc(NCC#Cc2cc3c(N[C@@H]4CN(C)C[C@@H]4F)nccn3c2SC(F)(F)F)c(OC)c1 [Example 325] | < 750 nM |
| < 750 nM | < 10 nM | ≥ 10000 nM | < 750 nM | > 90% | – | CNC(=O)c1ccc(OC)c(NCC#Cc2cc3c(N[C@@H]4CCNC[C@@H]4F)nccn3c2SC(F)F)c1 [Example 326] | < 750 nM |
| < 750 nM | < 10 nM | ≥ 10000 nM | < 750 nM | > 90% | – | CNC(=O)c1cnc(OC)c(NCC#Cc2cc3c(N[C@@H]4CN(C)C[C@@H]4F)nccn3c2SC(F)F)c1 [Example 328] | < 750 nM |
| < 750 nM | < 10 nM | ≥ 10000 nM | < 750 nM | > 90% | – | CNC(=O)c1cnc(OC)c(NCC#Cc2cc3c(N[C@@H]4CN(C)C[C@@H]4F)nccn3c2SC(F)(F)F)c1 [Example 330] | < 750 nM |
| < 750 nM | < 10 nM | ≥ 10000 nM | < 750 nM | > 90% | – | CNC(=O)c1ccc(OC)c(NCC#Cc2cc3c(N[C@@H]4CN(C)C[C@@H]4F)nccn3c2SC(F)F)c1 [Example 331] | < 750 nM |
| 1500 to 3000 nM | < 10 nM | ≥ 10000 nM | 1500 to 3000 nM | 80 to 90% | – | CNC(=O)c1ccc(OC)c(NCC#Cc2cc3c(N[C@@H]4CN(C)C[C@@H]4F)nccn3c2SC(F)F)n1 [Example 332] | > 3000 nM |
| < 750 nM | < 10 nM | ≥ 10000 nM | < 750 nM | > 90% | – | CNC(=O)c1ccc(OC)c(NCC#Cc2cc3c(N[C@@H]4CCN(C)C[C@@H]4F)nccn3c2SC(F)F)n1 [Example 333] | < 750 nM |
| 1500 to 3000 nM | 10 to 100 nM | ≥ 10000 nM | > 3000 nM | 80 to 90% | – | CNS(=O)(=O)c1ccc(OC)c(NCC#Cc2cc3c(N[C@@H]4CCN(C)C[C@@H]4F)nccn3c2SC(F)F)c1 [Example 334] | > 3000 nM |
| 1500 to 3000 nM | < 10 nM | ≥ 10000 nM | 1500 to 3000 nM | 80 to 90% | – | CNS(=O)(=O)c1ccc(OC)c(NCC#Cc2cc3c(N[C@@H]4CCN(C)C[C@@H]4F)nccn3c2SC(F)(F)F)c1 [Example 335] | 1500 to 3000 nM |

More lines, now with the values behind:

| Structure (SMILES) | IC50 (H1299 p53 Y220C) | Kd ([1]; SPR, p53 Y220C) | IC50 (H1299 p53 R273H) | AC50 (p53 Y220C) | Emax (p53 Y220C) | Kd [1] | IC50 (NUGC3 p53 Y220C) |
| --- | --- | --- | --- | --- | --- | --- | --- |
| CNC(=O)c1cnc(OC)c(NCC#Cc2nc3c(N[C@H]4C[C@@H]5CC[C@@H](N5)[C@H]4F)cccn3c2SC(F)(F)F)c1 [Example 267] | < 750 nM | < 10 nM | ≥ 10000 nM | < 750 nM | 70 to 80% | – | < 750 nM |
| CNC(=O)c1ccc(NCC#Cc2nn3c(N[C@@H]4CCNC[C@@H]4F)cccc3c2SC(F)(F)F)c(OC)c1 [Example 272] | < 750 nM | < 10 nM | 5000 to 8000 nM | < 750 nM | 80 to 90% | – | 750 to 1500 nM |
| CCc1ncc(C(=O)NC)cc1NCC#Cc1nc2c(N[C@@H]3CCN(C)C[C@@H]3F)cccn2c1SC(F)(F)F [Example 273] | < 750 nM | < 10 nM | ≥ 10000 nM | < 750 nM | > 90% | – | < 750 nM |
| CNC(=O)c1cnc(C)c(NCC#Cc2nc3c(N[C@@H]4CCN(C)C[C@@H]4F)cccn3c2SC(F)(F)F)c1 [Example 274] | < 750 nM | < 10 nM | ≥ 10000 nM | < 750 nM | > 90% | – | < 750 nM |
| CNC(=O)c1ccc(NCC#Cc2nc3c(N[C@@H]4CCOC[C@@H]4F)cccn3c2SC(F)(F)F)c(OC2CN(C)C2)c1 [Example 275, 4-{[3-(8-{[(3R,4R)-3-fluorooxan-4-yl]amino}-3-[(trifluoromethyl)sulfanyl]imidazo[1,2-a]pyridin-2-yl)prop-2-yn-1-yl]amino}-N-methyl-3-[(1-methylazetidin-3-yl)oxy]benzamide] | < 750 nM | < 10 nM | 5000 to 8000 nM | < 750 nM | 80 to 90% | – | < 750 nM |
| COc1ncc(C(N)=O)cc1NCC#Cc1nn2c(N[C@@H]3CCN(C)C[C@@H]3F)cccc2c1SC(F)(F)F [Example 276] | < 750 nM | < 10 nM | < 5000 nM | < 750 nM | 80 to 90% | – | < 750 nM |
| COc1cc(C(N)=O)ccc1NCC#Cc1nn2c(N[C@@H]3CCN(C)C[C@@H]3F)cccc2c1SC(F)F [Example 286] | < 750 nM | < 10 nM | ≥ 10000 nM | < 750 nM | > 90% | – | < 750 nM |
| CNC(=O)c1ccc(NCC#Cc2cc3c(N[C@@H]4CCNC[C@@H]4F)nccn3c2SC(F)(F)F)cc1 [Example 298] | < 750 nM | – | ≥ 10000 nM | < 750 nM | > 90% | < 10 nM | < 750 nM |
| CNC(=O)c1cnc(OC)c(NCC#Cc2nc3c(N[C@@H]4CNC[C@@H]4F)cccn3c2SC(F)(F)F)c1 [Example 305] | < 750 nM | < 10 nM | ≥ 10000 nM | < 750 nM | 80 to 90% | – | < 750 nM |
| CNC(=O)c1ccc(NCC#Cc2nc3c(N[C@@H]4CCN(C)C[C@@H]4F)cccn3c2SC(F)(F)F)c(Cl)c1 [Example 310] | < 750 nM | < 10 nM | ≥ 10000 nM | < 750 nM | > 90% | – | < 750 nM |
| CNC(=O)c1ccc(NCC#Cc2nc3c(N[C@@H]4CCN(C)C[C@@H]4F)cccn3c2SC(F)(F)F)c(F)c1 [Example 311] | < 750 nM | < 10 nM | 5000 to 8000 nM | < 750 nM | > 90% | – | < 750 nM |
| CNC(=O)c1cnc(OC)c(NCC#Cc2cc3c(N[C@@H]4CNC[C@@H]4F)nccn3c2SC(F)(F)F)c1 [Example 313] | 750 to 1500 nM | < 10 nM | ≥ 10000 nM | 750 to 1500 nM | 80 to 90% | – | 750 to 1500 nM |
| CN1CC[C@@H](Nc2cccn3c(SC(F)(F)F)c(C#CCNc4ccc(C(N)=O)cc4)nc23)[C@@H](F)C1 [Example 314] | < 750 nM | < 10 nM | ≥ 10000 nM | < 750 nM | > 90% | – | < 750 nM |
| CN1CC[C@@H](Nc2cccn3c(SC(F)(F)F)c(C#CCNc4ccc(P(C)(C)=O)cc4)nc23)[C@@H](F)C1 [Example 315] | < 750 nM | < 10 nM | ≥ 10000 nM | 750 to 1500 nM | 80 to 90% | – | < 750 nM |
| CCNC(=O)c1ccc(NCC#Cc2nn3c(N[C@@H]4CCN(C)C[C@@H]4F)cccc3c2SC(F)(F)F)c(OC)c1 [Example 316] | < 750 nM | < 10 nM | ≥ 10000 nM | < 750 nM | > 90% | – | < 750 nM |
| CNC(=O)c1ccc(OC)c(NCC#Cc2nc3c(N[C@@H]4CCN(C)C[C@@H]4F)cccn3c2SC(F)(F)F)c1F [Example 320] | > 3000 nM | 10 to 100 nM | ≥ 10000 nM | > 3000 nM | 70 to 80% | – | > 3000 nM |
| CNC(=O)c1ccc(NCC#Cc2nc3c(N[C@@H]4CN(C)C[C@@H]4F)nccn3c2SC(F)(F)F)c(OC)c1 [Example 323] | 750 to 1500 nM | < 10 nM | ≥ 10000 nM | 750 to 1500 nM | > 90% | – | 750 to 1500 nM |
